According to patent US12685726B2, “Sulfoximines as inhibitors of NaV1.8” (Gruenenthal GmbH, priority 2022, dated 2026):

Target: T1, human NaV 1.8 (Homo sapiens, UniProt Q9Y5Y9)
T1 construct: expressed in transfected cells; host or cells: HEK (recombinant cell line)
Assay: Automated whole-cell patch clamp (Qube384) voltage-clamp recordings of sodium currents in HEK-NaV1.8 cell line
Type: cell-based
Conditions: read-out: Potency category (human NaV 1.8 IC50)
Summary of the method: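 HEK cells expressing NaV1.8 with b3, whole-cell automated voltage clamp at room temperature or 19° C.; CsF-based internal, pH 7.4 external. State-dependent (−120 mV, V1/2 4 s, −10 mV test pulses) and 10/20 Hz 40-pulse protocols; ~12 min compound, vehicle-corrected, IC50 by 4-parameter logistic fit.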

T1 sequence (Q9Y5Y9 whole entry): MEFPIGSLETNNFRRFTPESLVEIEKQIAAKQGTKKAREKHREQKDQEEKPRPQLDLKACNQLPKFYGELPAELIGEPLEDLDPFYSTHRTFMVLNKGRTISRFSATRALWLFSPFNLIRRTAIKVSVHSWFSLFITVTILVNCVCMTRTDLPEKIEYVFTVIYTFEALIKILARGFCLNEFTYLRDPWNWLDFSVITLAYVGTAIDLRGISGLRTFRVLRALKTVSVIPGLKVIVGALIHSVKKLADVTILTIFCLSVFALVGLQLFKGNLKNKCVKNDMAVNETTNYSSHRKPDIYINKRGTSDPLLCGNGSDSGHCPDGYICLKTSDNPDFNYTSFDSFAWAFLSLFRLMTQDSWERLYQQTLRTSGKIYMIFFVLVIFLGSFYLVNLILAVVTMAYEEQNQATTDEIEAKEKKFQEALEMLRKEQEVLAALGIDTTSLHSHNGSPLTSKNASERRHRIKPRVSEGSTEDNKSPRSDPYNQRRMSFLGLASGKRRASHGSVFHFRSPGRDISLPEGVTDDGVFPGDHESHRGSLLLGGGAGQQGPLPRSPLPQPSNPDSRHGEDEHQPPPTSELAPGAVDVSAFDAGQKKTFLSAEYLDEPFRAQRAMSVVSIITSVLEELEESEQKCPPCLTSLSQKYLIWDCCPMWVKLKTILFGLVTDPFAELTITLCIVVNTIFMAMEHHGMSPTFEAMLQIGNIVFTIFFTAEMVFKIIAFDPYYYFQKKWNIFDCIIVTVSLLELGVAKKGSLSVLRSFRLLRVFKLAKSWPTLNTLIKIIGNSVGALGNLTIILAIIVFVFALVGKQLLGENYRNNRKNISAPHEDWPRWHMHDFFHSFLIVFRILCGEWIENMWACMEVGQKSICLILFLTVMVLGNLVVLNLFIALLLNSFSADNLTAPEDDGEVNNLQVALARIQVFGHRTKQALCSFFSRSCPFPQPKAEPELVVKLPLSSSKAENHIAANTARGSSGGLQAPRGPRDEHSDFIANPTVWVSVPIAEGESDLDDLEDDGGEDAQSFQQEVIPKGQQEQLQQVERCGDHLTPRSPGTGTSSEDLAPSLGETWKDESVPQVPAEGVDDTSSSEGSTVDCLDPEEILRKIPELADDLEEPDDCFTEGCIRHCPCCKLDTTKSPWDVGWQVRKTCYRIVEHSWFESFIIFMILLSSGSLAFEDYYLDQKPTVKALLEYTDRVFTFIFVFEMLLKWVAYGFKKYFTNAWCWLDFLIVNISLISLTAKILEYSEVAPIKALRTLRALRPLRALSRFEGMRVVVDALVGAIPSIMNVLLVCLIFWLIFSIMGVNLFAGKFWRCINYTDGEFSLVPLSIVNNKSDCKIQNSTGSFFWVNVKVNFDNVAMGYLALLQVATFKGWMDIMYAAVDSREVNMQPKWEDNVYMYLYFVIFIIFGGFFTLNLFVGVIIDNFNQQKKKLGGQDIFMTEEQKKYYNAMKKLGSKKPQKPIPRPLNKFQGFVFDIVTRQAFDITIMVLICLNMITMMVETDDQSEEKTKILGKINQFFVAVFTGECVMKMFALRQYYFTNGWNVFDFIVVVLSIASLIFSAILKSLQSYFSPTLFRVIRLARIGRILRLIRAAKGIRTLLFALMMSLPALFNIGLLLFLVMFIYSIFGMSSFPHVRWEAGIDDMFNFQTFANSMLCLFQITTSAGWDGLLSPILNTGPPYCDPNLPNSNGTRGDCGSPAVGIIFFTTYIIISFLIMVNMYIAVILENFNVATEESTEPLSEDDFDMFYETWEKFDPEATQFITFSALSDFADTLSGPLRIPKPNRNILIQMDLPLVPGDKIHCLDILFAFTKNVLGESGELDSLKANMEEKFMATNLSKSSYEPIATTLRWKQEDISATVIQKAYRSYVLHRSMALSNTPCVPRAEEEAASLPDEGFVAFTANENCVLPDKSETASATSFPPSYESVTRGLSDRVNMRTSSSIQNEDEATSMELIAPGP

| Structure (SMILES) | IC50 |
| --- | --- |
| C[S@@](=N)(=O)c1cccc(NC(=O)c2c(C(F)(F)F)c(C3(F)CC3)nn2CC2C[C@@H]2C(F)(F)F)c1 (single isomer, unassigned) [Example 134a, 3-(1-Fluorocyclopropyl)-N-(3-(S-methylsulfonimidoyl)phenyl)-4-(trifluoromethyl)-1-(((trans)-2-(trifluoromethyl)cyclopropyl)methyl)-1H-pyrazole-5-carboxamide] | ≤ 100 nM |
| CC1(Cn2nc(C3(F)CC3)c(C(F)(F)F)c2C(=O)Nc2cccc(S(C)(=O)=NC(=O)C3COC3)c2)CC(F)(F)C1 (single isomer, unassigned) [Example 150a, 1-((3,3-Difluoro-1-methylcyclobutyl)methyl)-3-(1-fluorocyclopropyl)-N-(3-(S-methyl-N-(oxetane-3-carbonyl)sulfonimidoyl)phenyl)-4-(trifluoromethyl)-1H-pyrazole-5-carboxamide] | ≤ 100 nM |
| CS(=N)(=O)c1cc(NC(=O)c2c(C(F)(F)F)c(C3CC3)nn2CC2CCC(F)(F)C2)ccn1 (single isomer, unassigned) [Example 7b, 3-cyclopropyl-1-((3,3-difluorocyclopentyl)methyl)-N-(2-(S-methylsulfonimidoyl)pyridin-4-yl)-4-(trifluoromethyl)-1H-pyrazole-5-carboxamide] | ≤ 100 nM |
| CS(=N)(=O)c1cc(NC(=O)c2c(C(F)(F)F)c(C3CC3)nn2CC2C3(CC3)C23CC3)ccn1 (single isomer, unassigned) [Example 80a, 3-cyclopropyl-1-(dispiro[2.0.24.13]heptan-7-ylmethyl)-N-(2-(S-methylsulfonimidoyl)pyridin-4-yl)-4-(trifluoromethyl)-1H-pyrazole-5-carboxamide] | ≤ 100 nM |
| CC1(Cn2nc(C3(C)CC3)c(C(F)(F)F)c2C(=O)Nc2ccnc(S(C)(=N)=O)c2)CC(F)(F)C1 (single isomer, unassigned) [Example 69a, 1-((3,3-difluoro-1-methylcyclobutyl)methyl)-3-(1-methylcyclopropyl)-N-(2-(S-methylsulfonimidoyl)pyridin-4-yl)-4-(trifluoromethyl)-1H-pyrazole-5-carboxamide] | ≤ 100 nM |
| CC1(Cn2nc(C3(C(F)F)CC3)c(C(F)(F)F)c2C(=O)Nc2ccnc(S(C)(=N)=O)c2)CC(F)(F)C1 (single isomer, unassigned) [Example 145b, 1-((3,3-Difluoro-1-methylcyclobutyl)methyl)-3-(1-(difluoromethyl)cyclopropyl)-N-(2-(S-methylsulfonimidoyl)pyridin-4-yl)-4-(trifluoromethyl)-1H-pyrazole-5-carboxamide] | ≤ 100 nM |
| CC1(Cn2nc(C3CC3)c(C(F)(F)F)c2C(=O)Nc2ccc(F)c(S(C)(=N)=O)c2)CC(F)(F)C1 (single isomer, unassigned) [Example 132b, 3-Cyclopropyl-1-((3,3-difluoro-1-methylcyclobutyl)methyl)-N-(4-fluoro-3-(S-methylsulfonimidoyl)phenyl)-4-(trifluoromethyl)-1H-pyrazole-5-carboxamide] | ≤ 100 nM |
| CS(=N)(=O)c1cc(NC(=O)c2c(C(F)(F)F)c(C3CC3)nn2CC23CC(F)(C2)C3)ccn1 (single isomer, unassigned) [Example 25a, 3-cyclopropyl-1-((3-fluorobicyclo[1.1.1]pentan-1-yl)methyl)-N-(2-(S-methylsulfonimidoyl)pyridin-4-yl)-4-(trifluoromethyl)-1H-pyrazole-5-carboxamide] | ≤ 100 nM |
| CC1(Cn2nc(C3CC3(F)F)c(C(F)(F)F)c2C(=O)Nc2ccnc(S(C)(=N)=O)c2)CC(F)(F)C1 (single isomer, unassigned) [Example 63b, 1-((3,3-Difluoro-1-methylcyclobutyl)methyl)-3-(2,2-difluorocyclopropyl)-N-(2-(S-methylsulfonimidoyl)pyridin-4-yl)-4-(trifluoromethyl)-1H-pyrazole-5-carboxamide] | ≤ 100 nM |
| CC1(Cn2nc(C3(F)CC3)c(C(F)(F)F)c2C(=O)Nc2cccc(S(=N)(=O)C(F)(F)F)c2)CC(F)(F)C1 (stereo not drawn) [Example 131, 1-((3,3-Difluoro-1-methylcyclobutyl)methyl)-3-(1-fluorocyclopropyl)-4-(trifluoromethyl)-N-(3-(S-(trifluoromethyl)sulfonimidoyl)phenyl)-1H-pyrazole-5-carboxamide] | ≤ 100 nM |
| Cc1c(C(C)(F)F)nn(CC2CCC(F)(F)C2)c1C(=O)Nc1ccnc(S(C)(=N)=O)c1 (centres unmarked) [Example 4, 1-((3,3-Difluorocyclopentyl)methyl)-3-(1,1-difluoroethyl)-4-methyl-N-(2-(S-methylsulfonimidoyl)pyridin-4-yl)-1H-pyrazole-5-carboxamide] | ≤ 100 nM |
| Cc1cc(NC(=O)c2c(C(F)(F)F)c(C3CC3)nn2CC2(C)CC(F)(F)C2)cc(S(C)(=N)=O)n1 (single isomer, unassigned) [Example 50b, 3-cyclopropyl-1-((3,3-difluoro-1-methylcyclobutyl)methyl)-N-(2-methyl-6-(S-methylsulfonimidoyl)pyridin-4-yl)-4-(trifluoromethyl)-1H-pyrazole-5-carboxamide] | ≤ 100 nM |
| C[C@]1(Cn2nc(C3CC3)c(C(F)(F)F)c2C(=O)Nc2ccnc([S@@](C)(=N)=O)c2)CC(F)(F)C12CC2 (single isomer, unassigned) [Example 92b, 3-cyclopropyl-1-((6,6-difluoro-4-methylspiro[2.3]hexan-4-yl)methyl)-N-(2-(S-methylsulfonimidoyl)pyridin-4-yl)-4-(trifluoromethyl)-1H-pyrazole-5-carboxamide] | ≤ 100 nM |
| CC1(Cn2nc(C3(C#N)CC3)c(C(F)(F)F)c2C(=O)Nc2ccnc(S(C)(=N)=O)c2)CC(F)(F)C1 (single isomer, unassigned) [Example 68b, 3-(1-cyanocyclopropyl)-1-((3,3-difluoro-1-methylcyclobutyl)methyl)-N-(2-(S-methylsulfonimidoyl)pyridin-4-yl)-4-(trifluoromethyl)-1H-pyrazole-5-carboxamide] | ≤ 100 nM |
| CC1(Cn2nc(C34CC(F)(C3)C4)c(C(F)F)c2C(=O)Nc2cccc(S(C)(=N)=O)c2)CC(F)(F)C1 (single isomer, unassigned) [Example 113b, 1-((3,3-Difluoro-1-methylcyclobutyl)methyl)-4-(difluoromethyl)-3-(3-fluorobicyclo[1.1.1]pentan-1-yl)-N-(3-(S-methylsulfonimidoyl)phenyl)-1H-pyrazole-5-carboxamide] | ≤ 100 nM |
| C[S@@](=N)(=O)c1cc(NC(=O)c2c(C(F)(F)F)c(C3CC3)nn2C[C@@H]2CC23CC3)ccn1 (single isomer, unassigned) [Example 78a, 3-cyclopropyl-N-(2-(S-methylsulfonimidoyl)pyridin-4-yl)-1-(spiro[2.2]pentan-1-ylmethyl)-4-(trifluoromethyl)-1H-pyrazole-5-carboxamide] | ≤ 100 nM |
| CC1(Cn2nc(C3CC3)c(C(F)(F)F)c2C(=O)Nc2cnnc(S(C)(=N)=O)c2)CC(F)(F)C1 (single isomer, unassigned) [Example 47b, 3-cyclopropyl-1-((3,3-difluoro-1-methylcyclobutyl)methyl)-N-(6-(S-methylsulfonimidoyl)pyridazin-4-yl)-4-(trifluoromethyl)-1H-pyrazole-5-carboxamide] | ≤ 100 nM |
| CS(=N)(=O)c1cc(NC(=O)c2c(C(F)(F)F)c(C3CC3)nn2CC2CC3(C2)CC(F)(F)C3)ccn1 (single isomer, unassigned) [Example 27b, 3-cyclopropyl-1-((6,6-difluorospiro[3.3]heptan-2-yl)methyl)-N-(2-(S-methylsulfonimidoyl)pyridin-4-yl)-4-(trifluoromethyl)-1H-pyrazole-5-carboxamide] | ≤ 100 nM |
| Cc1c(C(C)(F)F)nn(CC2(C)CCC(F)(F)CC2)c1C(=O)Nc1ccnc(S(C)(=N)=O)c1 (single isomer, unassigned) [Example 11a, 1-((4,4-difluoro-1-methylcyclohexyl)methyl)-3-(1,1-difluoroethyl)-4-methyl-N-(2-(S-methylsulfonimidoyl)pyridin-4-yl)-1H-pyrazole-5-carboxamide] | ≤ 100 nM |
| CS(=N)(=O)c1cc(NC(=O)c2c(C(F)(F)F)c(C3CC3)nn2CC2C(F)(F)C23CCC3)ccn1 (single isomer, unassigned) [Example 136b, 3-Cyclopropyl-1-((2,2-difluorospiro[2.3]hexan-1-yl)methyl)-N-(2-(S-methylsulfonimidoyl)pyridin-4-yl)-4-(trifluoromethyl)-1H-pyrazole-5-carboxamide] | ≤ 100 nM |
| CC1(Cn2nc(C34CC(F)(C3)C4)c(C(F)(F)F)c2C(=O)Nc2cccc(S(C)(=N)=O)c2)CC(F)(F)C1 (single isomer, unassigned) [Example 111b, 1-((3,3-difluoro-1-methylcyclobutyl)methyl)-3-(3-fluorobicyclo[1.1.1]pentan-1-yl)-N-(3-(S-methylsulfonimidoyl)phenyl)-4-(trifluoromethyl)-1H-pyrazole-5-carboxamide] | ≤ 100 nM |
| CCS(=N)(=O)c1cc(NC(=O)c2c(C(F)(F)F)c(C3CC3)nn2CC2(C)CC(F)(F)C2)ccn1 (single isomer, unassigned) [Example 48a, 3-cyclopropyl-1-((3,3-difluoro-1-methylcyclobutyl)methyl)-N-(2-(ethylsulfonimidoyl)pyridin-4-yl)-4-(trifluoromethyl)-1H-pyrazole-5-carboxamide] | ≤ 100 nM |
| CC1(Cn2nc(C3CC(F)(F)C3)c(C(F)(F)F)c2C(=O)Nc2ccnc(S(C)(=N)=O)c2)CC(F)(F)C1 (single isomer, unassigned) [Example 57a, 1-((3,3-Difluoro-1-methylcyclobutyl)methyl)-3-(3,3-difluorocyclobutyl)-N-(2-(S-methylsulfonimidoyl)pyridin-4-yl)-4-(trifluoromethyl)-1H-pyrazole-5-carboxamide] | ≤ 100 nM |
